Measurements published in patent US8669208B2, “Herbicidal benzoxazinones” (BASF SE, priority 2010, dated 2014).

Columns and labels:
Format in all cases: in vivo
Chenopodium album = assay: greenhouse herbicidal test, pre-emergence treatment; conditions: pre-emergence method, application rate 50 g/ha, scale from 0 to 100, read-out: herbicidal activity against Chenopodium album
Description: (§1) The seeds of the test plants were sown separately for each species. For the pre-emergence treatment, the active ingredients, which had been suspended or emulsified in water, were applied directly after sowing by means of finely distributing nozzles. The containers were irrigated gently to promote germination and growth and subsequently covered with transparent plastic hoods until the plants had rooted. This cover caused uniform germination of the test plants, unless this has been impaired by the active ingredients. Depending on the species, the plants were kept at 10-25° C. or 20-35° C. The test period extended over 2 to 4 weeks. During this time, the plants were tended, and their response to the individual treatments was evaluated. Evaluation was carried out using a scale from 0 to 100. 100 means no emergence of the plants, or complete destruction of at least the aerial moieties, and 0 means no damage, or normal course of growth. A good herbicidal activity is given at values of at least 70 and a very good herbicidal activity is given at values of at least 85. The plants used in the greenhouse experiments belonged to the following species: [table]

Amaranthus retroflexus = assay: as above; conditions: pre-emergence method, scale from 0 to 100, read-out: herbicidal activity against Amaranthus retroflexus; for pest or weed control at 50 g/ha: application rate 50 g/ha; for pest or weed control at 25 g/ha: application rate 25 g/ha
Description: as §1

Abutilon theophrasti [1] = assay: as above; conditions: pre-emergence method, application rate 50 g/ha; scale from 0 to 100
Description: as §1

Abutilon theophrasti [2] = assay: greenhouse herbicidal test, post-emergence treatment; conditions: post-emergence method, application rate 1000 g/ha; scale from 0 to 100
Description: (§2) The seeds of the test plants were sown separately for each species. For the post-emergence treatment, the test plants were first grown to a height of 3 to 15 cm, depending on the plant habit, and only then treated with the active ingredients which had been suspended or emulsified in water. For this purpose, the test plants were either sown directly and grown in the same containers, or they were first grown separately as seedlings and transplanted into the test containers a few days prior to treatment. Depending on the species, the plants were kept at 10-25° C. or 20-35° C. The test period extended over 2 to 4 weeks. During this time, the plants were tended, and their response to the individual treatments was evaluated. Evaluation was carried out using a scale from 0 to 100. 100 means no emergence of the plants, or complete destruction of at least the aerial moieties, and 0 means no damage, or normal course of growth. A good herbicidal activity is given at values of at least 70 and a very good herbicidal activity is given at values of at least 85. The plants used in the greenhouse experiments belonged to the following species: [table]

Viola arvensis = assay: greenhouse herbicidal test, pre-emergence treatment; conditions: pre-emergence method, application rate 25 g/ha; scale from 0 to 100
Description: as §1

Amaranthus palmeri = assay: greenhouse herbicidal test, post-emergence treatment; conditions: post-emergence method, application rate 12.5 g/ha; scale from 0 to 100
Description: as §2

Kochia scoparia = assay: as above; conditions: post-emergence method, application rate 12.5 g/ha; scale from 0 to 100
Description: as §2

Malva neglecta = assay: as above; conditions: post-emergence method, application rate 12.5 g/ha; scale from 0 to 100
Description: as §2

C#CCN1C(=O)C(F)(F)Oc2cc(F)c(N3C(=O)[C@H]4C[C@H](F)CN4C3=O)cc21 [Example 2, (6S,7aR)-6-Fluoro-2-(2,2,7-trifluoro-3-oxo-4-prop-2-ynyl-3,4-dihydro-2H-benzo[1,4]-oxazin-6-yl)-tetrahydro-pyrrolo[1,2-c]imidazole-1,3-dione] was tested, and the pest or weed control at 50 g/ha (Chenopodium album) was ≥ 85%, the pest or weed control at 50 g/ha (Amaranthus retroflexus) was ≥ 85% and the “herbicidal activity against Abutilon theophrasti” value (Abutilon theophrasti [1]) was “very good herbicidal activity (a very good herbicidal activity is given at values of at least 85)”.
With C#CCN1C(=O)C(F)(F)Oc2cc(F)c(-n3nc4n(c3=O)CCCC4)cc21 [Example 9] the pest or weed control at 50 g/ha (Chenopodium album) was ≥ 85%, the pest or weed control at 50 g/ha (Amaranthus retroflexus) was ≥ 85% and the “herbicidal activity against Abutilon theophrasti” value (Abutilon theophrasti [1]) was “very good herbicidal activity (a very good herbicidal activity is given at values of at least 85)”.
For C#CCN1C(=O)C(F)(F)Oc2cc(F)c(N3C(=O)OC(=C(C)C)C3=O)cc21 [Example 10], the pest or weed control at 50 g/ha (Chenopodium album) was ≥ 85%, the pest or weed control at 50 g/ha (Amaranthus retroflexus) was ≥ 85% and the “herbicidal activity against Abutilon theophrasti” value (Abutilon theophrasti [1]) was “very good herbicidal activity (a very good herbicidal activity is given at values of at least 85)”.
In the case of C#CCN1C(=O)C(F)(F)Oc2cc(F)c(-n3nc(C)n(C(F)F)c3=O)cc21 [Example 11], the pest or weed control at 50 g/ha (Chenopodium album) was ≥ 85%, the pest or weed control at 50 g/ha (Amaranthus retroflexus) was ≥ 85% and the “herbicidal activity against Abutilon theophrasti” value (Abutilon theophrasti [1]) was “very good herbicidal activity (a very good herbicidal activity is given at values of at least 85)”.
With C#CCN1C(=O)C(F)(F)Oc2cc(F)c(-n3nc(C)nc3OC(F)F)cc21 [Example 12] the pest or weed control at 50 g/ha (Chenopodium album) was ≥ 85%, the pest or weed control at 50 g/ha (Amaranthus retroflexus) was ≥ 85% and the “herbicidal activity against Abutilon theophrasti” value (Abutilon theophrasti [1]) was “very good herbicidal activity (a very good herbicidal activity is given at values of at least 85)”.
For C#CCN1C(=O)C(F)(F)Oc2cc(F)c(/N=c3\snc4n3CC(C)(C)C4)cc21 [Example 13], the pest or weed control at 50 g/ha (Chenopodium album) was ≥ 85% and the pest or weed control at 50 g/ha (Amaranthus retroflexus) was ≥ 85%.
In the case of C#CCN1C(=O)C(F)(F)Oc2cc(F)c(N3C(=O)CC(C)CC3=O)cc21 [Example 14], the pest or weed control at 50 g/ha (Chenopodium album) was ≥ 85%, the pest or weed control at 50 g/ha (Amaranthus retroflexus) was ≥ 85% and the “herbicidal activity against Abutilon theophrasti” value (Abutilon theophrasti [1]) was “very good herbicidal activity (a very good herbicidal activity is given at values of at least 85)”.
C#CCN1C(=O)C(F)(F)Oc2cc(F)c(N3C(=O)c4ccc(F)cc4C3=O)cc21 [Example 15] was tested, and the pest or weed control at 50 g/ha (Chenopodium album) was ≥ 85% and the pest or weed control at 50 g/ha (Amaranthus retroflexus) was ≥ 85%.
For C#CCN1C(=O)C(F)(F)Oc2cc(F)c(/N=c3\scc(C(F)(F)F)n3C)cc21 [Example 16], the pest or weed control at 50 g/ha (Chenopodium album) was ≥ 85% and the pest or weed control at 50 g/ha (Amaranthus retroflexus) was ≥ 85%.
With C#CCN1C(=O)C(F)(F)Oc2cc(F)c(N3C(=O)CC(=C(C)C)C3=O)cc21 [Example 17] the pest or weed control at 50 g/ha (Chenopodium album) was ≥ 85% and the pest or weed control at 50 g/ha (Amaranthus retroflexus) was ≥ 85%.
With Cn1nc(-c2cc3c(cc2F)OC(F)(F)C(=O)N3)cc1C(F)(F)F [Example 19] the “herbicidal activity against Abutilon theophrasti” value (Abutilon theophrasti [2]) was “very good herbicidal activity (a very good herbicidal activity is given at values of at least 85)”.
C#CCN1C(=O)C(F)(F)Oc2cc(F)c(-n3ncc(C(F)(F)F)c(C)c3=O)cc21 [Ia48, 2,2,7-Trifluoro-6-(5-methyl-6-oxo-4-trifluoromethyl-6H-pyridazin-1-yl)-4-prop-2-ynyl-4H-benzo[1,4]oxazin-3-one] was tested, and the pest or weed control at 25 g/ha (Amaranthus retroflexus) was ≥ 85%, the “herbicidal activity against Viola arvensis” value (Viola arvensis) was “very good herbicidal activity (a very good herbicidal activity is given at values of at least 85)” and the “herbicidal activity against Amaranthus palmeri” value (Amaranthus palmeri) was “very good herbicidal activity (a very good herbicidal activity is given at values of at least 85)”. For the same molecule, the “herbicidal activity against Kochia scoparia” value (Kochia scoparia) was “very good herbicidal activity (a very good herbicidal activity is given at values of at least 85)” and the “herbicidal activity against Malva neglecta” value (Malva neglecta) was “very good herbicidal activity (a very good herbicidal activity is given at values of at least 85)”.
With C#CCN1C(=O)C(F)(F)Oc2cc(F)c(/N=c3\sc(=O)n4n3CCCC4)cc21 [If48] the pest or weed control at 50 g/ha (Chenopodium album) was ≥ 85%, the pest or weed control at 50 g/ha (Amaranthus retroflexus) was ≥ 85% and the “herbicidal activity against Abutilon theophrasti” value (Abutilon theophrasti [1]) was “very good herbicidal activity (a very good herbicidal activity is given at values of at least 85)”.
With C#CCN1C(=O)C(F)(F)Oc2cc(F)c(-n3nc(C(C)(C)C)oc3=O)cc21 [Ig48, 6-(5-tert-Butyl-2-oxo-[1,3,4]oxadiazol-3-yl)-2,2,7-trifluoro-4-prop-2-ynyl-4H-benzo[1,4]oxazin-3-one] the pest or weed control at 25 g/ha (Amaranthus retroflexus) was ≥ 85%, the “herbicidal activity against Viola arvensis” value (Viola arvensis) was “very good herbicidal activity (a very good herbicidal activity is given at values of at least 85)” and the “herbicidal activity against Amaranthus palmeri” value (Amaranthus palmeri) was “very good herbicidal activity (a very good herbicidal activity is given at values of at least 85)”. The “herbicidal activity against Kochia scoparia” value (Kochia scoparia) was “good herbicidal activity (A good herbicidal activity is given at values of at least 70)” and the “herbicidal activity against Malva neglecta” value (Malva neglecta) was “very good herbicidal activity (a very good herbicidal activity is given at values of at least 85)”.
In the case of C#CCN1C(=O)C(F)(F)Oc2cc(F)c(N3C(=O)C(=O)N(CCC)C3=S)cc21 [Ii48, 1-Propyl-2-thioxo-3-(2,2,7-trifluoro-3-oxo-4-prop-2-ynyl-3,4-dihydro-2H-benzo[1,4]oxazin-6-yl)-imidazolidine-4,5-dione], the “herbicidal activity against Kochia scoparia” value (Kochia scoparia) was “very good herbicidal activity (a very good herbicidal activity is given at values of at least 85)” and the “herbicidal activity against Malva neglecta” value (Malva neglecta) was “very good herbicidal activity (a very good herbicidal activity is given at values of at least 85)”.
For C#CCN1C(=O)C(F)(F)Oc2cc(F)c(-n3c(=O)c4ccccc4n(C)c3=O)cc21 [Ik48, 1-Methyl-3-(2,2,7-trifluoro-3-oxo-4-prop-2-ynyl-3,4-dihydro-2H-benzo[1,4]oxazin-6-yl)-1H-quinazoline-2,4-dione], the pest or weed control at 25 g/ha (Amaranthus retroflexus) was ≥ 85%, the “herbicidal activity against Viola arvensis” value (Viola arvensis) was “good herbicidal activity (A good herbicidal activity is given at values of at least 70)” and the “herbicidal activity against Amaranthus palmeri” value (Amaranthus palmeri) was “very good herbicidal activity (a very good herbicidal activity is given at values of at least 85)”. The “herbicidal activity against Kochia scoparia” value (Kochia scoparia) was “very good herbicidal activity (a very good herbicidal activity is given at values of at least 85)” and the “herbicidal activity against Malva neglecta” value (Malva neglecta) was “very good herbicidal activity (a very good herbicidal activity is given at values of at least 85)”.
